Measured values as given in patent US12029738B2, “Antiproliferative compounds and methods of use thereof” (Celgene Corporation, priority 2017, dated 2024).
“And” between values parts separate entries of the source, which are not always exact repeats. Equal entries are not always repeated. Where two headings read alike, the source gives them in different places.

How the values were obtained:
[1] = test system: non-selective α1 adrenergic receptor; experiment: α1 adrenergic receptor radioligand binding ([3H]prazosin); details: rat cerebral cortex; for Adrenergic α1 (non-selective) % Inhibition (10 μM): 0.25 nM [3H]prazosin; for IC50: [3H]prazosin
Experimental: (§1) α1 Adrenergic and Dopamine D2 Receptors. Methods: Binding and functional assays for α1 adrenergic and dopamine D2 receptors were performed by Eurofins Cerep according to their methods.
α1 Adrenergic Receptor. Binding at 10 μM. The binding assay evaluated the affinity of test article for the non-selective α1 adrenergic receptor in rat cerebral cortex. Membrane homogenates of cerebral cortex were incubated in duplicate for 60 minutes at room temperature with 0.25 nM [^3H]prazosin in the absence or presence of test articles at 10 μM. After the incubation period, samples were filtered through glass fiber filters, the filters dried and then counted for radioactivity using a scintillation counter. Results are expressed as mean percent inhibition of control radioligand binding.
Binding IC50. […] Compound A was tested at 0.01-30 μM. […] Compound 1 and Compound 2, the S-enantiomer of Compound 1, were assayed at 0.03-100 μM. Radioactivity was measured as described above. The IC50 was defined as the concentration causing a half-maximum inhibition of control specific binding.

α1A adrenergic receptor = target: T1, α1A adrenergic receptor (Homo sapiens, UniProt P35348); experiment: α1A adrenergic receptor antagonist assay (calcium mobilization, CHO cells); type: cell-based
T1 construct: host or cells: CHO cells
T1 sequence (P35348 1-466): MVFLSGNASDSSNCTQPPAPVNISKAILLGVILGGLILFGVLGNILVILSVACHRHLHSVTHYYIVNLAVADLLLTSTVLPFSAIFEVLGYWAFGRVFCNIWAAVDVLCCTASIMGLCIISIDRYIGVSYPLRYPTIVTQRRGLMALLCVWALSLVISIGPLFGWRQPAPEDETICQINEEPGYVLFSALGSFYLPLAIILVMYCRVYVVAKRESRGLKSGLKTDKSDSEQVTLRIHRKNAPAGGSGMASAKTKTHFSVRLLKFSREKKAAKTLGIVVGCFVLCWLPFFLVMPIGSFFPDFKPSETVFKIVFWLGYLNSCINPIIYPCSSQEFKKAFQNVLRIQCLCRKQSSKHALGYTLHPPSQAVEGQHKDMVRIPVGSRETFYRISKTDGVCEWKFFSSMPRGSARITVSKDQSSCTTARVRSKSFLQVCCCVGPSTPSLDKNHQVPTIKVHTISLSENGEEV
Experimental: as §1
Antagonist activity. The antagonistic effects of test compounds on the α1A and α1B adrenergic receptors were measured using human receptor-transfected Chinese hamster ovary (CHO) cells. Antagonist activity was determined by measuring compound effect on agonist (epinephrine)-induced calcium mobilization in the α1A receptor assay or cAMP levels in the α1B receptor assay. In these experiments, CHO cells were incubated in duplicate at room temperature with test article and epinephrine at 3 nM in the α1A receptor assays or at 3000 nM in the α1B receptor assay. Compound A was tested in the α1A receptor assay at 0.01-30 μM. […] Compound 1 and Compound 2 were assayed at 0.03 to 30 μM in the α1A receptor assay and 0.03 to 100 μM in the α1B receptor assay. In the α1A receptor assay, cytosolic calcium levels were measured fluorometrically using the fluorescent probe, Fluo4 Direct. Intracellular cAMP levels in the α1B adrenergic receptor assay were measured by homogenous time-resolved fluorescence (HTRF). The antagonism IC50 was defined as the concentration causing a half-maximum inhibition of control agonist response.

dopamine D2S receptor = target: T2, dopamine D2S receptor (Homo sapiens, UniProt P14416); experiment: Dopamine D2S receptor radioligand binding (HEK-293); details: for inhibition at 10 µM: read-out: Dopamine D2S % Inhibition (10 μM)
T2 construct: host or cells: HEK-293 cells (membrane homogenates)
T2 sequence (P14416 1-414 isoform P14416-2): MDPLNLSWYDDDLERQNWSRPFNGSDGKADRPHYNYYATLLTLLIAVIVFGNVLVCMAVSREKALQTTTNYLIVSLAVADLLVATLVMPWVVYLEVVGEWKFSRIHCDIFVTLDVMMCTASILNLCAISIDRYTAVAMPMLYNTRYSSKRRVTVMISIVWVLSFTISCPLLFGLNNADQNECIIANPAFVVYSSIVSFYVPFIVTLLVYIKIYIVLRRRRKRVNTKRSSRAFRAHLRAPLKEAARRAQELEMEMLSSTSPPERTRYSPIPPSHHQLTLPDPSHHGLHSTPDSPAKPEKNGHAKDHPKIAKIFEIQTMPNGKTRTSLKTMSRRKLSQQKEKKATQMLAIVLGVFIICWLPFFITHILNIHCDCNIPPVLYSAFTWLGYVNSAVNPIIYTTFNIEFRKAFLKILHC
Experimental: as §1
(§2) Dopamine D2 Receptor. Binding at 10 μM. The binding assay evaluated the affinity of test articles for the dopamine D2 receptor in transfected human embryonic kidney (HEK)-293 cells. For determining the binding in the D2S receptor assay, test article was incubated with 0.3 nM [^3H] methylspiperone or 1 nM [^3H] 7-hydroxy-2-N,N-dipropylaminotetralin (7-OH-DPAT). [3H] Methylspiperone at 0.3 nM also was used as control ligand in the D2L binding assay. Cell membrane homogenates were incubated in duplicate at room temperature for 60 minutes with ligand in the absence or presence of test articles at 10 μM. After the incubation period, samples were filtered through glass fiber filters, the filters dried and then counted for radioactivity using a scintillation counter. Results are expressed as mean percent inhibition of control radioligand binding.
(§3) Binding IC50. To determine the binding IC50 in the D2 receptor assays, HEK-293 were tested as described above but with varying concentrations of test article. Compound A was tested at 0.01-30 μM in the D2S radioligand binding assay. […] Compound 1 was assayed at 0.03-100 μM in both the D2S and D2L assays, while Compound 2 was tested at 0.03-100 μM in the D2S assay and 0.01-100 μM in the D2L assays. The IC50 was defined as the concentration causing a half-maximum inhibition of control specific binding.

dopamine D2L receptor = target: T3, dopamine D2L receptor (Homo sapiens, UniProt P14416); experiment: Dopamine D2L receptor radioligand binding (HEK-293)
T3 construct: host or cells: HEK-293 cells (membrane homogenates)
T3 sequence (P14416 whole entry): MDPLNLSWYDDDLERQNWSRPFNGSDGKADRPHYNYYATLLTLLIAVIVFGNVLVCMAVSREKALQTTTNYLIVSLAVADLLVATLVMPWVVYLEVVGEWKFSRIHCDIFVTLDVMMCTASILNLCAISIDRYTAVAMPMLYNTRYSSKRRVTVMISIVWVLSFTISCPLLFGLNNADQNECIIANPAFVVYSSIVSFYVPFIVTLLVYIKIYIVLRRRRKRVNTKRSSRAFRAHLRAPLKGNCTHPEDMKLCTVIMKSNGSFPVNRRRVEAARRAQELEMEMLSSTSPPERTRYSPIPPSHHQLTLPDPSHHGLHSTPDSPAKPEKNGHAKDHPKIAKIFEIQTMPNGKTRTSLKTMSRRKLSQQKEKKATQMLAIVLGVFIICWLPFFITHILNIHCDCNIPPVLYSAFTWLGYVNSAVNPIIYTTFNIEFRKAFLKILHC
Experimental: as §1, §2, §3

K562 cells = experiment: Coculture of compound-treated IL-2-activated PBMCs with K562 cells; type: cell-based, human; details: for IC50: Homo sapiens, K562, IL-2-activated PBMCs treated 72 h, 4 h coculture, read-out: IC50 of compound-treated PBMCs for direct K562 cell killing
Experimental: Coculture Experiments with Peripheral Blood Mononuclear Cells and K562 Cells. Methods: Human Peripheral Blood Mononuclear Cell (PBMC) Preparation: PBMCs isolated from healthy donors were cultured in RPMI 1640 medium with 10% FBS at a density of 1×10^6 cells/mL.
Cell Culture: K562 cells were kept in log phase, and cell density and viability were monitored by trypan blue exclusion using the Vi-CELL® XR cell viability analyzer (Beckman Coulter, Brea, CA).
Assay Procedures: Freshly isolated human PBMCs were cultured with recombinant IL-2 at concentration of 20 units/mL for 72 h. Peripheral blood mononuclear cells were then spun down and re-suspended in fresh RPMI complete medium to 2×10^6 cells/mL. Cells were then treated with DMSO or compounds at the indicated concentrations and incubated for an additional 72 h. The PBMCs were then washed twice in fresh RPMI complete medium prior to coculture. K562 cells were re-suspended to a cell density of 1×10^6/mL and stained with 1 μM CellTrace CFSE according to manufacturer's instructions. The labeled K562 cells were then seeded into a 96-well round bottom plate at 1×10^5 cells/well. Peripheral blood mononuclear cells were then transferred into the same 96-well plate at a 1:15 ratio, in triplicate and incubated at 37° C. for 4 h. Specific target cell lysis by PBMC cells was measured using Annexin V-fluorescein isothiocyanate (FITC) and propidium iodide (PI) according to manufacturer's instructions and samples were run on the FACS Array scan. Non-labeled K562 cells, CellTrace CFSE-labeled K562 cells, and Annexin V-FITC- and PI labeled untreated K562 cells were included in each assay as controls.

With N#Cc1ccc(N2CCN(Cc3ccc(COc4cccc5c4CN(C4CCC(=O)NC4=O)C5=O)cc3)CC2)c(F)c1 (racemic) [Compound 1, 4-(4-(4-(((2-(2,6-dioxopiperidin-3-yl)-1-oxoisoindolin-4-yl)oxy)methyl)benzyl)piperazin-1-yl)-3-fluorobenzonitrile] the “Adrenergic α1 (non-selective) % Inhibition (10 μM)” value [1] was 67%, the IC50 [1] was 3900 nM and the IC50 (α1A adrenergic receptor) was 980 nM. For the same compound, the IC50 (dopamine D2S receptor) was 7400 nM, the inhibition at 10 µM (dopamine D2S receptor) was 55% and the IC50 (dopamine D2L receptor) was 2300 nM. For the same compound, the inhibition at 10 µM (dopamine D2L receptor; read-out: D2L % Inhibition (10 μM)) was 55%.

With N#Cc1ccc(N2CCN(Cc3ccc(COc4cccc5c4CN([C@H]4CCC(=O)NC4=O)C5=O)cc3)CC2)c(F)c1 [Compound 2, (S)-4-(4-(4-(((2-(2,6-dioxopiperidin-3-yl)-1-oxoisoindolin-4-yl)oxy)methyl)benzyl)piperazin-1-yl)-3-fluorobenzonitrile] the “Adrenergic α1 (non-selective) % Inhibition (10 μM)” value [1] was 62%, the IC50 [1] was ~1300 nM and the IC50 (α1A adrenergic receptor) was 580 nM. The IC50 (dopamine D2S receptor) was ~2000 nM, the inhibition at 10 µM (dopamine D2S receptor) was 52% and the “potency relative to lenalidomide-treated PBMCs” value (K562 cells; 50% direct K562 cell killing) was ~2600 fold. The “potency relative to pomalidomide-treated PBMCs” value (K562 cells; 50% direct K562 cell killing) was ~600 fold, the IC50 (K562 cells) was 5900 nM and the IC50 (dopamine D2L receptor) was ~3000 nM.

For O=C1CC[C@H](N2Cc3c(OCc4ccc(CN5CCN(c6ccc(F)cc6F)CC5)cc4)cccc3C2=O)C(=O)N1 [Compound B], the “Adrenergic α1 (non-selective) % Inhibition (10 μM)” value [1] was 98% and 100%, the IC50 [1] was 24 nM and the IC50 (α1A adrenergic receptor; epinephrine 3 nM, calcium mobilization, read-out: Antagonism IC50 α1A) was 6.4 nM. For the same compound, the “Dopamine D2S % Inhibition (10 μM)” value (dopamine D2S receptor; 10 μM) was 99, % and 99^a %, the “D2L % Inhibition (10 μM)” value (dopamine D2L receptor; 10 μM) was 103% and the IC50 (dopamine D2L receptor; read-out: D2L Binding IC50) was 84 nM.

Nc1cccc2c1C(=O)N(C1CCC(=O)NC1=O)C2=O (centres unmarked) [Pomalidomide, pomalidomide] gave an IC50 (K562 cells) of 4 nM.
